This passage reports TGI and GI50 results from PubChem BioAssay (NCI).

What all share (assay): inhibition of tumour cell growth, NCI panel, 48 h
The subject of assay [1] is ACHN renal.
Assay [2] has as its system BT-549 breast.
In assay [3] the test system is HCT-15 colon.
The test system of assay [4] is HOP-92 NSCLC.
Assay [5] deals with MOLT-4 leukemia.
The subject of assay [6] is NCI-H23 lung.
Assay [7] concerns NCI/ADR-RES ovarian.
The subject of assay [8] is SF-295 CNS.
The subject of assay [9] is SF-539 CNS.
The subject of assay [10] is SK-MEL-5 melanoma.

Each structure is given as a SMILES string. Values joined by “and” are separate entries in the source; they are usually repeats but may differ in a detail not shown here. Identical values can stand only once.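 Dose response: 5 concentrations. Exposure: 48 h. Format: 96-well plates. Endpoint: linear interpolation; highest concentration if not reached. Abbreviation: GI50, concentration required for 50% inhibition of growth. TGI marks complete inhibition of growth.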

Regarding `C/C=C1\C[C@@H]2C(OC)Nc3cc(O)c(OC)cc3C(=O)N2C1` (stereo not given in full), the TGI in assay [1] is 0.0294 µM; in assay [2], 0.0151 µM and 0.0269 µM; in [4], 0.129 µM and < 0.0137 µM; in [5] it was 0.225 µM; in assay [6], 0.00892 µM; in assay [7], 0.0384 µM and < 0.0116 µM. The TGI in [8] was 0.467 µM and 1.43 µM; in assay [9], 0.00892 µM and < 0.0283 µM; in assay [10], 0.00889 µM. For the same molecule, the GI50 is 0.00733 µM in assay [3]; 0.00738 µM in [4]; 0.00248 µM in assay [5]; 0.00262 µM in assay [6]; 0.00328 µM in [8]; 0.00315 µM in assay [9]. Further, in assay [10], the GI50 was 0.00327 µM.

For `CS(=O)(=O)c1ccc(-c2[nH]c3ccc(F)cc3c2/C=N/NC(N)=S)cc1`, the GI50 in assay [1] is 2.17 µM; in [2] it was 1.61 µM; in assay [3], 0.611 µM; in assay [4], 0.574 µM; in assay [5], 0.981 µM; in assay [6], 4.66 µM. The GI50 was 1.17 µM in [7], 0.899 µM in assay [8], 1.3 µM in assay [9] and 0.634 µM in assay [10]. Moreover, the TGI was above 100 µM in assay [1]; 34.4 µM in assay [2]; above 100 µM in assay [3]; 52.9 µM in assay [4]; 24 µM in [5]; above 100 µM in assay [6]. For the same molecule, the TGI in assay [7] was above 100 µM; in [8] it was 13.1 µM; in [9], above 100 µM; in [10], 11.9 µM.

Turning to `Cc1nc2sc(C(=O)Nc3cccc(Cl)c3C)c(N)c2cc1C(=O)c1ccccc1`, the GI50 in assay [1] is 0.344 µM; in assay [2] it was 0.355 µM; in assay [3], 0.226 µM; in [4], 0.259 µM; in assay [5] it was 0.254 µM; in assay [6], 1.14 µM. Besides, the GI50 was 0.192 µM in assay [7], 0.179 µM in [8], 0.159 µM in assay [9] and 0.278 µM in [10]. In addition, the TGI in assay [1] was above 50 µM; in assay [2], above 13.6 µM; in [3], above 50 µM; in assay [4], above 23.7 µM; in [5], above 50 µM; in assay [6], above 50 µM. Further, the TGI in assay [8] is above 10.6 µM; in assay [9], 0.915 µM; in [10], 6.13 µM.

`COc1ccc2c(c1)c(-c1nc(-c3cn(C)c4ncccc34)cs1)cn2CCCCN1CCOCC1`: the GI50 in assay [1] is 1.59 µM; in assay [2], 2.3 µM; in assay [3], 0.627 µM; in assay [4], 0.922 µM; in assay [5], 0.951 µM; in assay [6], 2.02 µM. In addition, the GI50 was 1.72 µM in assay [7], 1.57 µM in assay [8], 1.56 µM in assay [9] and 1.67 µM in assay [10]. Further, the TGI in assay [1] was 2.99 µM; in assay [2], 10.7 µM; in assay [3] it was 1.47 µM; in assay [4], 3.59 µM; in assay [5], 2.8 µM; in assay [6], 5.58 µM. The TGI in assay [7] was determined as 5.05 µM; in [8], 3.48 µM; in [9], 3.02 µM; in assay [10] it was 3.06 µM.

With `CC(C)NCCCCCNc1cc(O)cc2cccnc12`, the GI50 in assay [1] was above 100 µM; in assay [2] it was above 37.7 µM; in assay [3] it was above 100 µM; in [4], 6.89 µM; in assay [5], above 77.8 µM; in assay [6] it was above 24.6 µM. The GI50 in assay [7] is above 100 µM; in assay [8], above 100 µM; in [9], above 100 µM; in assay [10], 98.1 µM. Moreover, the TGI in assay [1], in [2], in [3], in [4], in assay [5] and in [6] was above 100 µM each time. For the same molecule, the TGI in [7], in assay [8], in [9] and in assay [10] was above 100 µM throughout.

With `COc1ccc(OC)c(-c2cc(C(=O)O)c3cc4ccccc4cc3n2)c1`, the TGI in assay [1], in [2], in assay [3], in assay [4], in assay [5] and in assay [6] was above 100 µM throughout. Moreover, the TGI in assay [7], in assay [8], in [9] and in assay [10] was above 100 µM in each case.

For `O=[N+]([O-])c1ccc(NN=C2c3ccccc3Cc3ccccc32)c([N+](=O)[O-])c1`, the TGI in assay [1], in assay [2], in [3], in assay [4], in assay [5] and in assay [6] was above 100 µM each time. In addition, the TGI in [7], in [8], in [9] and in [10] was above 100 µM in each case.

For the molecule `Cc1ccc(C)c(N2C(=O)C(=O)c3c(C)ccc(C)c32)c1`, the TGI is 33.4 µM in assay [1]; 42.2 µM in assay [2]; 27.2 µM in assay [3]; 96.8 µM in assay [4]; 48.8 µM in [5]; 70 µM in assay [6]. Further, the TGI in assay [7] is 62.9 µM; in [8] it was 54.8 µM; in [9], 36.4 µM; in [10] it was 41.2 µM.

`CS(=O)(=O)N(CC(=O)O)Cc1ccccc1`: the TGI in assay [1], in [2], in [3], in [4], in assay [5] and in assay [6] was above 100 µM each time. Also, the TGI in [7], in assay [8], in [9] and in [10] was above 100 µM in each case.
